Test results published in BindingDB's records for doi:10.1016/j.bmcl.2016.10.061 (Ocean University of China, 2016).

Target: Proto-oncogene tyrosine-protein kinase receptor Ret (Homo sapiens) (UniProt P07949)
Assay: Inhibition of CCDC6/RET (unknown origin) expressed in mouse BaF3 cells assessed as reduction in cell proliferation after 72 hrs by MTT assay

Sequence of Proto-oncogene tyrosine-protein kinase receptor Ret (Homo sapiens) (P07949 whole entry, looked up): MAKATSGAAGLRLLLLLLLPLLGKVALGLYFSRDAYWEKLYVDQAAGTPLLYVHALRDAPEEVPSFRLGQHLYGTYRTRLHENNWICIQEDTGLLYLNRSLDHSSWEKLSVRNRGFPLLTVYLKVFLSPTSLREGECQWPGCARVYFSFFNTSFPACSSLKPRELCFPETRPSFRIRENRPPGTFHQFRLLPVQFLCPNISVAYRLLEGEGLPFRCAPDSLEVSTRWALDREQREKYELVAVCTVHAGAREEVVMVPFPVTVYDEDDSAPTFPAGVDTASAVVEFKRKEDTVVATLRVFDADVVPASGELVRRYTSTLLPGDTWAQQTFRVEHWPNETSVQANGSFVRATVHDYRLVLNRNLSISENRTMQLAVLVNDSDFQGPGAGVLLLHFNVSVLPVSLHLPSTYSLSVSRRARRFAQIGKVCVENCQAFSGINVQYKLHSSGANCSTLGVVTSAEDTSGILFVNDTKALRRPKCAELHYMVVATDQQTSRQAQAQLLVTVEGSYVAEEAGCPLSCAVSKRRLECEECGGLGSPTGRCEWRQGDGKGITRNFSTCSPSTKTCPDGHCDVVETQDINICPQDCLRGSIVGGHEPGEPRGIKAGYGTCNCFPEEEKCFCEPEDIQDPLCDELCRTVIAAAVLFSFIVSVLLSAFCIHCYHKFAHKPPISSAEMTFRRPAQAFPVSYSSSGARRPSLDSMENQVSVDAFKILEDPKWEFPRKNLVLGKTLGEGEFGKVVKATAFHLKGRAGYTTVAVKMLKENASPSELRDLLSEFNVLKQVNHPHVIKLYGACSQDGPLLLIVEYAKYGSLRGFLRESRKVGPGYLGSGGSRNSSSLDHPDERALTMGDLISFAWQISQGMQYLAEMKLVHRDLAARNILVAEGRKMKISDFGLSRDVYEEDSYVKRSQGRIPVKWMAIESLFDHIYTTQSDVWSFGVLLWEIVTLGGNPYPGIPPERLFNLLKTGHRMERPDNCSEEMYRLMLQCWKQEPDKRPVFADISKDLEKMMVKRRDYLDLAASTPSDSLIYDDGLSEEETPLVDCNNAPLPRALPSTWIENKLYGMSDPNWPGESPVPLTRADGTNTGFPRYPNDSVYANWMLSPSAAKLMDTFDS

- IC50: 0.407 µM
Structure (SMILES): CN1CCN(Cc2ccc(NC(=O)c3ccc(Cl)c(-c4noc(-c5cncc(-c6cnn(C)c6)c5)n4)c3)cc2C(F)(F)F)CC1
